Measurements: article PMC6386617 (Molecular cell, 2018)

Tests used:
human eIF4A1 (WT) [1] = target: human eIF4A1 (WT) (Homo sapiens, UniProt P60842, F163L/I199M); assay: UV crosslinking of γ […]-ATP; format: biochemical; details: 10 μM protein, 0.1 μM ATP, 37 °C (crosslinking); labelled compound
human eIF4A1 (WT) [2] = target: human eIF4A1 (WT) (Homo sapiens, UniProt P60842); assay: UV crosslinking of γ […]-ATP; format: biochemical; details: 10 μM protein, 0.1 μM ATP, 37 °C (crosslinking); labelled compound
human eIF4A1 (WT) (Homo sapiens, UniProt P60842), sequence (P60842 2-406): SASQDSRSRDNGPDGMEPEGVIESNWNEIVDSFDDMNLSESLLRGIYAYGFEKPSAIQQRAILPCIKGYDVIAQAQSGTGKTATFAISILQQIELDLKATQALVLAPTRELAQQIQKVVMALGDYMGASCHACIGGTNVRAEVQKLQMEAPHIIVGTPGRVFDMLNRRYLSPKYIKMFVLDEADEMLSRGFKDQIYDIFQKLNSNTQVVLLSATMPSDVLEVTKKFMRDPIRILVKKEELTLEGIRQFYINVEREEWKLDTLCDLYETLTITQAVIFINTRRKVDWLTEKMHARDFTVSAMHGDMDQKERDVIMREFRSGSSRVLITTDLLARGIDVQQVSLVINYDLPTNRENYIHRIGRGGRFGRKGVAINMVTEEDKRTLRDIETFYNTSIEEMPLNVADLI

eIF4A1 (19-406) = eIF4A1 (19-406) (Homo sapiens, UniProt P60842 19-406); assay: X-ray crystallography
eIF4A1 (19-406), sequence (P60842 19-406): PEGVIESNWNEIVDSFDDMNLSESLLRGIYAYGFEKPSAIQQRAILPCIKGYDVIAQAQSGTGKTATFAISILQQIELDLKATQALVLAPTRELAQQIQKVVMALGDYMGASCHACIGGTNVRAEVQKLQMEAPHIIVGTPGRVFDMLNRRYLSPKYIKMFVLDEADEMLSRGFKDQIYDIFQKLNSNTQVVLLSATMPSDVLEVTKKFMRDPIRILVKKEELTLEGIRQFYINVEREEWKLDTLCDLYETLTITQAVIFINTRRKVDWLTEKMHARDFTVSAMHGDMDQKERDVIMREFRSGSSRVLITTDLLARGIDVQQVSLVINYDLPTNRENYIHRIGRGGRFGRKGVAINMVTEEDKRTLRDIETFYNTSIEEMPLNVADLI

human eIF4A1 (WT) (Homo sapiens, UniProt P60842, F163L/I199M), sequence (P60842 2-406 F163L/I199M): as the sequence (P60842 2-406) above, with F162L, I198M counted along it

Row | Molecule | UV crosslinking of γ 32P-ATP; TLC ATPase assay (human eIF4A1 (WT) [1]) | UV crosslinking of γ 32P-ATP; TLC ATPase assay (human eIF4A1 (WT) [2]) | binding result (eIF4A1 (19-406))
1 | Nc1ncnc2c1ncn2[C@@H]1O[C@H](COP(=O)(O)OP(=O)(O)OP(=O)(O)O)[C@@H](O)[C@H]1O [ATP] | neither single nor double mutations disrupt the basic features of eIF4A1 | tested a variety of their biochemical properties: ATP binding, ATP hydrolysis | 
2 | AGAGAGAGAG (ssRNA) [(AG)5 polypurine RNA] |  |  | binds
